Source: patent publication US20230092890A1, “1, 3, 4-Oxadiazole derivative compounds as histone deacetylase 6 inhibitor, and the pharmaceutical composition comprising the same” (Chong Kun Dang Pharmaceutical Corp., priority 2019, published 2023)
Read-outs that look alike come from different tables or passages of the source.

Experiments:
HDAC1 = target: T1, HDAC1 (Homo sapiens, UniProt Q13547); test: HDAC enzyme activity inhibition (in vitro), HDAC1 Fluorimetric Drug Discovery Assay Kit; assay type: biochemical
T1 construct: purchased Enzolifesciences BML-AK511
Outline: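 Each sample reacted with enzyme for 60 min at 37° C before a 30-min developer step at the same temperature. HDAC1 doses spanned 100 to 10000 nM. Fluorescent signal was read at Ex 390/Em 460.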

HDAC6 human recombinant = target: T2, HDAC6 human recombinant (Homo sapiens, UniProt Q9UBN7); test: HDAC enzyme activity inhibition (in vitro), HDAC6 assay; assay type: biochemical
T2 construct: purchased Calbiochem 382180
T2 sequence (Q9UBN7 1-1215): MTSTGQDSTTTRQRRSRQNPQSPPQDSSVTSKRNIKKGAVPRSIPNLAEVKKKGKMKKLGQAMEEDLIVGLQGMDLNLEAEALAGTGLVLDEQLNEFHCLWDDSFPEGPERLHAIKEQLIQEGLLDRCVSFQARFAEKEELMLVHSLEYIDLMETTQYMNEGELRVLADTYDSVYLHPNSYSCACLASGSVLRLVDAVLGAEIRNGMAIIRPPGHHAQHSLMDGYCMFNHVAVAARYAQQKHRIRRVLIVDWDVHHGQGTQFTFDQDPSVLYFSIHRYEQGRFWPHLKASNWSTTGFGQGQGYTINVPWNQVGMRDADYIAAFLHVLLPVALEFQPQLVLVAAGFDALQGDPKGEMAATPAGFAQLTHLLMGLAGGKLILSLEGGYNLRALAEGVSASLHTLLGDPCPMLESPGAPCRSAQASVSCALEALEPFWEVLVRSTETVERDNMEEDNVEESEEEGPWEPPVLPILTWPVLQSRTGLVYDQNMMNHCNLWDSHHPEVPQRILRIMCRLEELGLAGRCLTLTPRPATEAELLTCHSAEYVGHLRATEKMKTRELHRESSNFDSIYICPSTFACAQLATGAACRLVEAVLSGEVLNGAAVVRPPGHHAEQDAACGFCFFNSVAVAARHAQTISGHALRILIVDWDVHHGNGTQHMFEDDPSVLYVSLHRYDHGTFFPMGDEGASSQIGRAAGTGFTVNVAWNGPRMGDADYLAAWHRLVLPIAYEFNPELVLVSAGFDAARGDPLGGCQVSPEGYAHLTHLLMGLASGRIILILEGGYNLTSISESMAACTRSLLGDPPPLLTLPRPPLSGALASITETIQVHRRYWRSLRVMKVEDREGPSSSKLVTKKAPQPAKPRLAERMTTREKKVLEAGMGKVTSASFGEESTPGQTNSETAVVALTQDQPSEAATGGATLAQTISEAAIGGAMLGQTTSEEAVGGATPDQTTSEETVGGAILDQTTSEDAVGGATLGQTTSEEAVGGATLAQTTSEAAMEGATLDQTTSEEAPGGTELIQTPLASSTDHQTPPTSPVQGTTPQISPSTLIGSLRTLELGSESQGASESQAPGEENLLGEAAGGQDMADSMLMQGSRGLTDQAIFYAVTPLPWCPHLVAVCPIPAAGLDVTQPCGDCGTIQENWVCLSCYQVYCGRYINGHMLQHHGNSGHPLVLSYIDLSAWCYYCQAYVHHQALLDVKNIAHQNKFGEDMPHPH
Outline: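 Fluorescence (Ex 390, Em 460) read after a 37° C, 60 min enzyme reaction and a further 30 min developer step at 37° C. Uses recombinant human HDAC6; HDAC1 arm dosed at 100, 1000, 10000 nM.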

[1] = samples at 100, 1000 and 10000 nM, 37° C. 60 minutes, fluorescence Ex 390, Em 460, read-out: HDAC1 IC50
[2] = samples at 0.1, 1, 10, 100 and 1000 nM, 37° C. 60 minutes, fluorescence Ex 390, Em 460, read-out: HDAC6 IC50

T1 sequence (Q13547 whole entry): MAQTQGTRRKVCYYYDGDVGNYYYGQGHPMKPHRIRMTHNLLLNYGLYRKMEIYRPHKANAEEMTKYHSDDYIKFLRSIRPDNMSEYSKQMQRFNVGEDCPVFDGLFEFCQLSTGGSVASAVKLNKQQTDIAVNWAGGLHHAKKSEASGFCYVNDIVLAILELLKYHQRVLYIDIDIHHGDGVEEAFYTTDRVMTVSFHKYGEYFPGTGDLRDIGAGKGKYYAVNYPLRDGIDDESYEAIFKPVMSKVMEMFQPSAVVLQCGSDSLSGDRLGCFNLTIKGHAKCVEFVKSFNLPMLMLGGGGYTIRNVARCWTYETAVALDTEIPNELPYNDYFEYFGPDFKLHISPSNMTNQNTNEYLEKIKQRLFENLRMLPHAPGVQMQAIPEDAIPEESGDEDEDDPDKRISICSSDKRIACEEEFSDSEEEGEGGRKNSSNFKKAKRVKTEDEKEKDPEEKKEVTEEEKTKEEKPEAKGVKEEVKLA

IC50 (HDAC1; [1]) [nM]	IC50 (HDAC6 human recombinant; [2]) [nM]	SMILES	IC50 (HDAC1) [nM]	IC50 (HDAC6 human recombinant) [nM]
> 10000	374	CN1CCC(n2c(=O)n(Cc3ccc(-c4nnc(C(F)F)o4)cn3)c3cc(F)c(-c4ccc5c(ccn5C(=O)OC(C)(C)C)c4)cc32)CC1 [Compound 251, tert-butyl 5-(1-((5-(5-(difluoromethyl)-1,3,4-oxadiazole-2-yl)pyridine-2-yl)methyl)-6-fluoro-3-(1-methylpiperidine-4-yl)-2-oxo-2,3-dihydro-1H-benzo[d]imidazole-5-yl)-1H-indole-1-carboxylate]		
> 10000	9	CCN1CCC[C@H](n2c(=O)n(Cc3ccc(-c4nnc(C(F)F)o4)cn3)c3cc(F)c(-c4cccnc4)cc32)C1 [Compound 298, (S)-1-((5-(5-(difluoromethyl)-1,3,4-oxadiazole-2-yl)pyridine-2-yl)methyl)-3-(1-ethylpiperidine-3-yl)-6-fluoro-5-(pyridine-3-yl)-1,3-dihydro-2H-benzo[d]imidazole-2-one]		
> 10000	64	O=c1n(Cc2ccc(-c3nnc(C(F)F)o3)cn2)c2ccccc2n1C1CC2(COC2)C1 [Compound 28, 1-((5-(5-(difluoromethyl)-1,3,4-oxadiazole-2-yl)pyridine-2-yl)methyl)-3-(2-oxaspiro[3.3]heptane-6-yl)-1,3-dihydro-2H-benzo[d]imidazole-2-one]		
> 10000	264	CN1CC(n2c(=O)n(Cc3ccc(-c4nnc(C(F)F)o4)cn3)c3ccccc32)C1 [Compound 7, 1-((5-(5-(difluoromethyl)-1,3,4-oxadiazole-2-yl)pyridine-2-yl)methyl)-3-(1-methylazetidine-3-yl)-1,3-dihydro-2H-benzo[d]imidazole-2-one]		
> 10000	103	CC(C)N1CCC(n2c(=O)n(Cc3ccc(-c4nnc(C(F)F)o4)cn3)c3ccc(F)cc32)CC1 [Compound 46, 1-((5-(5-(difluoromethyl)-1,3,4-oxadiazole-2-yl)pyridine-2-yl)methyl)-5-fluoro-3-(1-isopropylpiperidine-4-yl)-1,3-dihydro-2H-benzo[d]imidazole-2-one]		
> 10000	61	Cn1c(=O)n(Cc2ccc(-c3nnc(C(F)F)o3)cc2F)c2cc(F)c(Br)cc21 [Compound 148, 5-bromo-1-(4-(5-(difluoromethyl)-1,3,4-oxadiazole-2-yl)-2-fluorobenzyl)-6-fluoro-3-methyl-1,3-dihydro-2H-benzo[d]imidazole-2-one]		
> 10000	34	COC(=O)N1CCC(n2c(=O)n(Cc3ccc(-c4nnc(C(F)F)o4)cn3)c3cc(F)ccc32)CC1 [Compound 68, Methyl 4-(3-((5-(5-(difluoromethyl)-1,3,4-oxadiazole-2-yl)pyridine-2-yl)methyl)-5-fluoro-2-oxo-2,3-dihydro-1H-benzo[d]imidazole-1-yl)piperidine-1-carboxylate]		
> 10000	140	CS(=O)(=O)N1CCC(n2c(=O)n(Cc3ccc(-c4nnc(C(F)F)o4)cc3F)c3ncccc32)CC1 [Compound 204, 3-(4-(5-(difluoromethyl)-1,3,4-oxadiazole-2-yl)-2-fluorobenzyl)-1-(1-(methylsulfonyl)piperidine-4-yl)-1,3-dihydro-2H-imidazo[4,5-b]pyridine-2-one]		
> 10000	39	CN1CCN(c2cc3c(cc2F)n(Cc2ccc(-c4nnc(C(F)F)o4)cn2)c(=O)n3C2COC2)CC1 [Compound 319, 1-((5-(5-(difluoromethyl)-1,3,4-oxadiazole-2-yl)pyridine-2-yl)methyl)-6-fluoro-5-(4-methylpiperazine-1-yl)-3-(oxetan-3-yl)-1,3-dihydro-2H-benzo[d]imidazole-2-one]		
> 10000	173	CC(C)(C)C(=O)Nc1ccc2c(c1)n(Cc1ccccc1)c(=O)n2Cc1ccc(-c2nnc(C(F)F)o2)cn1 [Compound 207, N-(3-benzyl-1-((5-(5-(difluoromethyl)-1,3,4-oxadiazole-2-yl)pyridine-2-yl)methyl)-2-oxo-2,3-dihydro-1H-benzo[d]imidazole-5-yl)pivalamide]		
> 10000	20	CN1CCC(n2c(=O)n(Cc3ccc(-c4nnc(C(F)F)o4)cn3)c3ccc(-c4ccccc4F)cc32)CC1 [Compound 134, 1-((5-(5-(difluoromethyl)-1,3,4-oxadiazole-2-yl)pyridine-2-yl)methyl)-5-(2-fluorophenyl)-3-(1-methylpiperidine-4-yl)-1,3-dihydro-2H-benzo[d]imidazole-2-one]		
> 10000	> 5000	CN1CCC(n2c(=O)n(Cc3ccc(-c4nnc(C(F)F)o4)cc3F)c3cc(-c4ccc(C(F)(F)F)cc4)ccc32)CC1 [Compound 122, 3-(4-(5-(difluoromethyl)-1,3,4-oxadiazole-2-yl)-2-fluorobenzyl)-1-(1-methylpiperidine-4-yl)-5-(4-(trifluoromethyl)phenyl)-1,3-dihydro-2H-benzo[d]imidazole-2-one]		
> 10000	21	O=c1oc2cc(-c3cccnc3)c(F)cc2n1Cc1ccc(-c2nnc(C(F)F)o2)cn1 [Compound 277, 3-((5-(5-(difluoromethyl)-1,3,4-oxadiazole-2-yl)pyridine-2-yl)methyl)-5-fluoro-6-(pyridine-3-yl)benzo[d]oxazole-2(3H)-one]		
		O=c1n(Cc2ccc(-c3nnc(C(F)F)o3)cn2)c2cc(Cl)ccc2n1C1CCN(CC(F)(F)C(F)(F)C(F)(F)F)CC1 [Compound 232, 5-chloro-3-((5-(5-(difluoromethyl)-1,3,4-oxadiazole-2-yl)pyridine-2-yl)methyl)-1-(1-(2,2,3,3,4,4,4-heptafluorobutyl)piperidine-4-yl)-1,3-dihydro-2H-benzo[d]imidazole-2-one]	> 10000	643
> 10000	11	Cn1c(=O)n(Cc2ccc(-c3nnc(C(F)F)o3)cn2)c2cc(F)c(-c3ccc(S(C)(=O)=O)cc3)cc21 [Compound 225, 1-((5-(5-(difluoromethyl)-1,3,4-oxadiazole-2-yl)pyridine-2-yl)methyl)-6-fluoro-3-methy 1-5-(4-(methylsulfonyl)phenyl)-1,3-dihydro-2H-benzo[d]imidazole-2-one]		
> 10000	62	O=c1n(Cc2ccc(-c3nnc(C(F)F)o3)cc2F)c2cc(C(F)(F)F)ccc2n1C1CCN(C2COC2)CC1 [Compound 92, 3-(4-(5-(difluoromethyl)-1,3,4-oxadiazole-2-yl)-2-fluorobenzyl)-1-(1-(oxetan-3-yl)piperidine-4-yl)-5-(trifluoromethyl)-1,3-dihydro-2H-benzo[d]imidazole-2-one]		
> 10000	228	CN1CC(N2Cc3ccccc3N(Cc3ccc(-c4nnc(C(F)F)o4)cc3F)C2=O)C1 [Compound 32, 1-(4-(5-(difluoromethyl)-1,3,4-oxadiazole-2-yl)-2-fluorobenzyl)-3-(1-methylazetidine-3-yl)-3,4-dihydroquinazoline-2(1H)-one]		
> 10000	61	O=c1n(Cc2ccc(-c3nnc(C(F)F)o3)cc2)c2cc(F)ccc2n1C1CCN(C2COC2)CC1 [Compound 80, 3-(4-(5-(difluoromethyl)-1,3,4-oxadiazole-2-yl)benzyl)-5-fluoro-1-(1-(oxetan-3-yl)piperidine-4-yl)-1,3-dihydro-2H-benzo[d]imidazole-2-one]		
> 10000	18	Cn1c(=O)n(Cc2ccc(-c3nnc(C(F)F)o3)cn2)c2cc(F)ccc21 [Compound 142, 3-((5-(5-(difluoromethyl)-1,3,4-oxadiazole-2-yl)pyridine-2-yl)methyl)-5-fluoro-1-methy 1-1,3-dihydro-2H-benzo[d]imidazole-2-one]		
